From patent US7867998B2, “Method of making antitussive medicine and relieving cough” (Hong Kong Jockey Club Institute of Chinese Medicine Limited, priority 2005, dated 2011)

Key:
[1] = test system: guinea pigs; experiment: Antitussive assay: citric acid aerosol-induced cough in conscious guinea pigs, intragastric administration; type: in vivo, guinea pig; details: 0.5 M citric acid aerosol for 10 min, versus 1st challenge, HCl salt form in saline
Procedure: Unrestrained conscious guinea pigs were individually placed in a transparent Perspex airtight chamber and exposed to 0.5 M citric acid aerosol produced by an ultrasonic nebulizer (NEU12, Omron, Tokyo, Japan) for 10 min with a flow rate of 0.6 ml/min. During the 10 min observation period, the animals were continuously observed, and the numbers and timing of typical body movement of cough responses including opening the mouth, contraction of thoracic and abdomen muscles and a jerking of the front body were noted. The cough sounds were concurrently picked up via a microphone which connected to a personal computer and analyzed by Cool Edit 2000 software (Syntrillium, Phenix, USA). Thus a cough response can be differentiated from a sneeze and other background noises by observation of body movements, cough sound from loudspeakers and wave patterns recorded in the computer. Animals producing cough more than 18 times but less than 30 in the first challenge were selected for further antitussive tests. Cough episodes during the first challenge were recorded as control data. After 72 hour recovery, the selected sensitive animals were randomly divided into several groups with six animals in each group. The test samples were changed to their salt forms with 4% HCl to dissolve in saline and administrated intragastrically.
In the present experiments, neotuberostemonine produced a reduction in cough episodes by 17 and 40% (P<0.01 versus 1st challenge) at 25 and 50 mg/kg i.g., respectively. […] These two alkaloids are different from neotuberostemonine in molecular skeletons (i.e., base structures). Neotuberostemonine belongs to the stenine group while croomine and stemoninine belong to the tuberostemospironine and stemoamide groups, respectively. […] Since croomine and stemoninine are the major components of Radix Stemonae, they provided scientific evidence for the use of Radix Stemonae for cough treatment in folk medicines and in PRC Pharmacopeia.

[2] = test system: cough; details: intraperitoneal, at the same dosage; Chung et al., Planta Med. 2003; cited from earlier work

| SMILES | reduction in cough episodes ([1]; 25 mg/kg i.g.) | reduction in cough episodes ([1]; 50 mg/kg i.g.) | inhibition (of cough) [2] |
| --- | --- | --- | --- |
| CC[C@H]1[C@H]2[C@@H](CCCN3[C@H]2CC[C@H]3[C@@H]2C[C@H](C)C(=O)O2)O[C@]12C=C(C)C(=O)O2 [Stemoninine] | 32% | 66% | – |
| C[C@@H]1C[C@]2(CCCCN3[C@H]2CC[C@H]3[C@@H]2C[C@H](C)C(=O)O2)OC1=O [croomine, Croomine] | 35% | 57% | – |
| CC[C@@H]1[C@H]2CCCCN3[C@H]2[C@@H](C[C@H]3[C@@H]2C[C@H](C)C(=O)O2)[C@H]2[C@@H]1OC(=O)[C@H]2C [neotuberostemonine, reference compound] | 17% | 40% | 85% |
